This is an account of results in patent US7632794B1, “Lens care solutions comprising alkyldimonium hydroxypropyl alkylglucosides” (Bausch & Lomb Incorporated, priority 2008, dated 2009).

The assay relates to five microorganisms tested (three bacterium and two fungal strains). The experiment in a line: Biocidal efficacy across the microorganisms tested. It is filed as cell-based. As to conditions: aqueous buffered borate solution. An excerpt: Accordingly, a composition containing as little as 75 ppm of S-1218 and 50 ppm of L-1010P is shown to have very strong biocidal activity against all five microorganisms.

For “stearyl dimoniumhydropropyl laurylglucoside”, the “biocidal efficacy (in words)” value was “relatively high increase in biocidal efficacy”.
In the case of “stearyl dimoniumhydropropyl decylglucoside” it was “relatively high increase in biocidal efficacy”.
